Like-named read-outs stand apart in the source and are kept apart here.
What was measured:
human MMP14 = human MMP14 (Homo sapiens (Human), UniProt P50281); assay: hMMP14 assay (390 MMP FRET Substrate I); type: biochemical; details: human MMP14 (Biomol), read-out: hMMP-14 potency IC50
Experimental: The basis for the assay is the cleavage of the substrate 390 MMP FRET Substrate I (Anaspec Cat #AS-27076) by human MMP14 (Biomol, Cat #SE-259).
The reaction is initiated by adding to the assay plate 390 MMP FRET Substrate I (10 μL, 2.5 μM) in the same buffer.
Finally, the fluorescence is read on the Envision (Perkin Elmer) after an incubation of 60 min at room temperature (Excitation 485 nm, Emission 530).

human ADAMTS4 = human ADAMTS4 (Homo sapiens (Human), UniProt O75173); assay: hADAMTS-4 TBIS-1 cleavage assay, Protocol 2; type: biochemical
human MMP13 = human MMP13 (Homo sapiens (Human), UniProt P45452); assay: hMMP13 assay, Protocol 2 (390 MMP FRET Substrate I, Enzo enzyme); type: biochemical; details: Protocol 2, human MMP13 (Enzo Life Sciences), read-out: hMMP-13 potency IC50
Experimental: Human MMP13 is preactivated by incubated the enzyme in the same buffer complemented with 1 mM freshly prepared p-Aminophenylmercuric acetate (AMPA) for 1 h at 37° C.

human ADAMTS-5 = human ADAMTS-5 (Homo sapiens (Human), UniProt Q9UNA0); assay: hADAMTS-5 TBIS-1 cleavage assay, Protocol 3; type: biochemical; details: 90 min at 37° C., read-out: hADAMTS-5 potency IC50
human ADAMTS-5, sequence (Q9UNA0 262-930): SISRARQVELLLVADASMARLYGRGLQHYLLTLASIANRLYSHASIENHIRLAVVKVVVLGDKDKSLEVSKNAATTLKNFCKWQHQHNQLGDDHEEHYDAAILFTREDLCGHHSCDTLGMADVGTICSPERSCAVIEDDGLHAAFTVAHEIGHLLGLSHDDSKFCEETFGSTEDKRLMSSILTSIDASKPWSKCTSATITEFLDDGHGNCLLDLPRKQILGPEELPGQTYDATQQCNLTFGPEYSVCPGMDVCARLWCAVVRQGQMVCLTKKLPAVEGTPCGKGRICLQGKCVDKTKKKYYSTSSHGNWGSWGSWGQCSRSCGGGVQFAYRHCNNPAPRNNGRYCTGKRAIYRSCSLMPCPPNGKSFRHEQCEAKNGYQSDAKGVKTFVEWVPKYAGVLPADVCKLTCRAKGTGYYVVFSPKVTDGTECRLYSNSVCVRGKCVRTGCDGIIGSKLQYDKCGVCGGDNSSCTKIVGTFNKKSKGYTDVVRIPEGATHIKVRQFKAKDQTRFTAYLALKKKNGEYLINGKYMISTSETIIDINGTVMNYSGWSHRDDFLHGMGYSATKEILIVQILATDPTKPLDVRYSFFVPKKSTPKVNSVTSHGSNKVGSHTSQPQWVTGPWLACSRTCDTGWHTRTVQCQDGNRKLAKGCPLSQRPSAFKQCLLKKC
Experimental: The reaction is initiated by adding to the assay plate TBIS-1 (10 μL, 4.5 μM, Anaspec) in the same buffer.
Finally, the fluorescence is read on the Envision (Perkin Elmer) after an incubation of 90 min at 37° C. (Excitation 485 nm, emission 530).

human TACE = human TACE (Homo sapiens (Human), UniProt P78536); assay: biochemical
human TACE, sequence (P78536 215-671): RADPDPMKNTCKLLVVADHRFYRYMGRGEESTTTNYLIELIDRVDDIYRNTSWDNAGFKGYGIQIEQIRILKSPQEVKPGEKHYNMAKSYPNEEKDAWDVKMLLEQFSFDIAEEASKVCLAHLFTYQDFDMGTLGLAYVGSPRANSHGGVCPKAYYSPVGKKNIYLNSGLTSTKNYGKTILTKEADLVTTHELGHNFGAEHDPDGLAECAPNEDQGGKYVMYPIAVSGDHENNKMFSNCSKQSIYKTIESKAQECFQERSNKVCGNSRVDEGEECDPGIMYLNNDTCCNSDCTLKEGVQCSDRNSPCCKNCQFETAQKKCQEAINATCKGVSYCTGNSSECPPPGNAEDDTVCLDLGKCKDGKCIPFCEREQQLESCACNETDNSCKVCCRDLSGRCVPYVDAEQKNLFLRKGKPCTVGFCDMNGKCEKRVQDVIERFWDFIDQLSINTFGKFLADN
Experimental: Finally, the fluorescence is read on the Envision (Perkin Elmer) after an incubation of 75 min at room temperature (Excitation 485 nm, Emission 530).

human ADAMTS6 = human ADAMTS6 (Homo sapiens (Human), UniProt Q9UKP5); assay: hADAMTS-6 fluorescent based protease assay (520 MMP FRET substrate XII); type: biochemical; details: 37° C. for 2 h; read-out: hADAMTS-6 potency IC50
human ADAMTS6, sequence (Q9UKP5 other isoform, or with tags, fused parts or gaps): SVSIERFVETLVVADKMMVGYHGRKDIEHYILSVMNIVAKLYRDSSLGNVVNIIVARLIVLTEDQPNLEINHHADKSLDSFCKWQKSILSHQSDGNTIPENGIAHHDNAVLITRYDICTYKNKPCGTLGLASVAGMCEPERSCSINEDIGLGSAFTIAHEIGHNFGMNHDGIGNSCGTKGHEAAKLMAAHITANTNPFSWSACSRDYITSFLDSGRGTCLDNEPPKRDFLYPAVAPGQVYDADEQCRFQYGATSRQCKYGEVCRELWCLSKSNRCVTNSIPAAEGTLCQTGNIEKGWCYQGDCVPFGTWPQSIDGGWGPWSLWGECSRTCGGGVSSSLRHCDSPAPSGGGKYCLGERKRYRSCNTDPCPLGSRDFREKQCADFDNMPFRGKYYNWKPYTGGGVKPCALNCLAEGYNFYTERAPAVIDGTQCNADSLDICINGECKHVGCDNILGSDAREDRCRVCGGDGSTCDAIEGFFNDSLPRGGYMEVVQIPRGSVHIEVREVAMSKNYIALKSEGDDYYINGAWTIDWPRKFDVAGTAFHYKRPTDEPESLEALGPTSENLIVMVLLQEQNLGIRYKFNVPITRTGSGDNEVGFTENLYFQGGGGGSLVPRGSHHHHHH
Procedure, shortened: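 ADAMTS6 (0.73 nM final) in 25 mM Tris pH 8.0, 0.05% CHAPS, 2.5 mM CaCl2 with compound dilution series (top 20 μM, 1/5 steps). Reaction started with 520 MMP FRET Substrate XII, incubated 2 h at 37 °C. Substrate cleavage read by fluorescence ex485/em530; IC50 determined.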

[1] = Protocol 2, 180 min at 37° C., read-out: ADAMTS4 potency IC50

human ADAMTS4, sequence (O75173 213-837): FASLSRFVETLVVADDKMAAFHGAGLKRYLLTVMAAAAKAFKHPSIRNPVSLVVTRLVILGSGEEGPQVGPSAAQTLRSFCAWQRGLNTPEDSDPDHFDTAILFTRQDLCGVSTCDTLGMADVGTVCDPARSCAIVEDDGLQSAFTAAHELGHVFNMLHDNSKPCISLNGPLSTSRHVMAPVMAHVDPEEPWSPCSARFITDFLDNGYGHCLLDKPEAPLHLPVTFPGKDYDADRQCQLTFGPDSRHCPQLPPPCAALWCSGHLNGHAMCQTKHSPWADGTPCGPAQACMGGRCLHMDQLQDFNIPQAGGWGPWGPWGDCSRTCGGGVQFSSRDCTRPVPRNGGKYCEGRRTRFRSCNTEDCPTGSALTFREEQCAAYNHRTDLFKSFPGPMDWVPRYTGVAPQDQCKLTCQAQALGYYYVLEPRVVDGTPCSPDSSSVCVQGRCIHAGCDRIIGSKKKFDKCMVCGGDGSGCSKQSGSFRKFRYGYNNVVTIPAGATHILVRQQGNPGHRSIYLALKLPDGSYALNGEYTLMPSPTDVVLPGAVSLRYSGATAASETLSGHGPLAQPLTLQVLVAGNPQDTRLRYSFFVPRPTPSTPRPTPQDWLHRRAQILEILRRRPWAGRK

Row | Structure (SMILES) | IC50 (human MMP14) [nM] | IC50 (human MMP13) [nM] | IC50 (human ADAMTS-5) [nM] | IC50 (human TACE) [nM] | IC50 (human ADAMTS6) [nM] | IC50 (human ADAMTS4; [1]) [nM] | IC50 (human ADAMTS4) [nM]
1 | CC[C@]1(C[C@H](C)C(=O)N2CCN(c3cc(F)c(F)c(OC)c3)CC2)NC(=O)NC1=O [Cpd 57, (5R)-5-[(2S)-3-[4-(3,4-difluoro-5-methoxy-phenyl)piperazin-1-yl]-2-methyl-3-oxo-propyl]-5-ethyl-imidazolidine-2,4-dione] | > 100 | > 100 | 25 to 50 | > 100 | 0.001 to 25 |  | 50 to 100
2 | COc1cc(N2CCN(C(=O)[C@@H](C)C[C@@]3(C)NC(=O)NC3=O)CC2)cc(F)c1Cl [Cpd 122, (5R)-5-[(2S)-3-[4-(4-chloro-3-fluoro-5-methoxy-phenyl)piperazin-1-yl]-2-methyl-3-oxo-propyl]-5-methyl-imidazolidine-2,4-dione] | > 100 | > 100 | 0.001 to 25 | > 100 | 0.001 to 25 |  | 50 to 100
3 | COc1cc(N2CCN(C(=O)CC[C@@]3(C)NC(=O)NC3=O)C[C@@H]2C)ccc1Cl [Cpd 55, (5R)-5-[3-[(3 S)-4-(4-chloro-3-methoxy-phenyl)-3-methyl-piperazin-1-yl]-3-oxo-propyl]-5-methyl-imidazolidine-2,4-dione] | > 100 | > 100 | 50 to 100 | > 100 | 0.001 to 25 | > 100 | 
4 | COc1cc(N2CCN(C(=O)C(C)CC3(C)NC(=O)NC3=O)C[C@@H]2C)cc(C)c1Cl (mixture of isomers) [Cpd 125, 5-[3-[(3S)-4-(4-chloro-3-methoxy-5-methyl-phenyl)-3-methyl-piperazin-1-yl]-2-methyl-3-oxo-propyl]-5-methyl-imidazolidine-2,4-dione] | > 100 | > 100 | 25 to 50 | > 100 | 0.001 to 25 |  | 50 to 100
5 | COc1cc(N2CCN(C(=O)CC[C@@]3(C)NC(=O)NC3=O)CC2)cc(OC)c1F [Cpd 74, (5R)-5-[3-[4-(4-fluoro-3,5-dimethoxy-phenyl)piperazin-1-yl]-3-oxo-propyl]-5-methyl-imidazolidine-2,4-dione] | > 100 | > 100 | > 100 | > 100 | 0.001 to 25 | > 100 | 
6 | COC[C@]1(C[C@H](C)C(=O)N2CCN(c3cc(F)c(Cl)c(OC)c3)[C@@H](C)C2)NC(=O)NC1=O (mixture of isomers) [Cpd 121, 5-[3-[(3S)-4-(4-chloro-3-fluoro-5-methoxy-phenyl)-3-methyl-piperazin-1-yl]-2-methyl-3-oxo-propyl]-5-(methoxymethyl)imidazolidine-2,4-dione] | > 100 | > 100 | 25 to 50 | > 100 | 0.001 to 25 |  | 50 to 100
7 | COc1cc(N2CCN(C(=O)CC[C@@]3(C)NC(=O)NC3=O)CC2)cc(C)c1Cl [Cpd 112, (5R)-5-[3-[4-(4-chloro-3-methoxy-5-methyl-phenyl)piperazin-1-yl]-3-oxo-propyl]-5-methyl-imidazolidine-2,4-dione] | > 100 | > 100 | > 100 | > 100 | 0.001 to 25 |  | 50 to 100
8 | COc1cc(N2CCN(C(=O)[C@@H](C)C[C@@]3(C)NC(=O)NC3=O)C[C@@H]2C)cc(F)c1Cl (stereo in doubt) [Cpd 120, 5-[3-[(3S)-4-(4-chloro-3-fluoro-5-methoxy-phenyl)-3-methyl-piperazin-1-yl]-2-methyl-3-oxo-propyl]-5-methyl-imidazolidine-2,4-dione] | > 100 | > 100 | 0.001 to 25 | > 100 | 0.001 to 25 |  | 50 to 100
9 | COc1cc(N2CCN(C(=O)CC[C@@]3(C4CC4)NC(=O)NC3=O)C[C@@H]2C)cc(F)c1Cl [Cpd 65, (5S)-5-[3-[(3S)-4-(4-chloro-3-fluoro-5-methoxy-phenyl)-3-methyl-piperazin-1-yl]-3-oxo-propyl]-5-cyclopropyl-imidazolidine-2,4-dione] | > 100 | > 100 | 0.001 to 25 | > 100 | 0.001 to 25 |  | 50 to 100
10 | COc1cc(N2CCN(C(=O)CC[C@@]3(C)NC(=O)NC3=O)C[C@@H]2C)cc(Cl)c1Cl [Cpd 90, (5R)-5-[3-[(3 S)-4-(3,4-dichloro-5-methoxy-phenyl)-3-methyl-piperazin-1-yl]-3-oxo-propyl]-5-methyl-imidazolidine-2,4-dione] | > 100 | > 100 | 0.001 to 25 | > 100 | 0.001 to 25 |  | 25 to 50
11 | CCc1cc(N2CCN(C(=O)CC[C@@]3(C)NC(=O)NC3=O)C[C@@H]2C)ccc1Cl [Cpd 75, (5R)-5-[3-[(3 S)-4-(4-chloro-3-ethyl-phenyl)-3-methyl-piperazin-1-yl]-3-oxo-propyl]-5-methyl-imidazolidine-2,4-dione] | > 100 | > 100 | 50 to 100 | > 100 | 0.001 to 25 | > 100 | 

The next lines start with results.

Row | IC50 (human MMP14) [nM] | IC50 (human MMP13) [nM] | IC50 (human ADAMTS-5) [nM] | IC50 (human TACE) [nM] | IC50 (human ADAMTS6) [nM] | IC50 (human ADAMTS4; [1]) [nM] | Structure (SMILES) | IC50 (human ADAMTS4) [nM]
12 | > 100 | > 100 | > 100 | > 100 | 0.001 to 25 | > 100 | COc1cc(N2CCN(C(=O)CC[C@@]3(C)NC(=O)NC3=O)C[C@@H]2C)cc(OC)c1F [Cpd 89, (5R)-5-[3-[(3 S)-4-(4-fluoro-3,5-dimethoxy-phenyl)-3-methyl-piperazin-1-yl]-3-oxo-propyl]-5-methyl-imidazolidine-2,4-dione] | 
13 | > 100 | > 100 | > 100 | > 100 | 0.001 to 25 | > 100 | CCOc1cc(N2CCN(C(=O)CC[C@@]3(C)NC(=O)NC3=O)C[C@@H]2C)cc(OC)c1Cl [Cpd 80, (5R)-5-[3-[(3 S)-4-(4-chloro-3-ethoxy-5-methoxy-phenyl)-3-methyl-piperazin-1-yl]-3-oxo-propyl]-5-methyl-imidazolidine-2,4-dione] | 
14 | > 100 | > 100 | > 100 | > 100 | 0.001 to 25 | > 100 | CCOc1cc(N2CCN(C(=O)CC[C@@]3(C)NC(=O)NC3=O)CC2)cc(OC)c1Cl [Cpd 79, (5R)-5-[3-[4-(4-chloro-3-ethoxy-5-methoxy-phenyl)piperazin-1-yl]-3-oxo-propyl]-5-methyl-imidazolidine-2,4-dione] | 
15 | > 100 | > 100 | > 100 | > 100 | 0.001 to 25 | > 100 | COc1cc(N2CCN(C(=O)CC[C@@]3(C)NC(=O)NC3=O)C[C@@H]2C)cc(N(C)C)c1Cl [Cpd 99, (5R)-5-[3-[(3S)-4-[4-chloro-3-(dimethylamino)-5-methoxy-phenyl]-3-methyl-piperazin-1-yl]-3-oxo-propyl]-5-methyl-imidazolidine-2,4-dione] | 
16 | > 100 | > 100 | > 100 | > 100 | > 100 | > 100 | CC[C@H]1CN(C(=O)CC[C@@]2(C)NC(=O)NC2=O)CCN1c1ccc(Cl)c(OC)c1 [Cpd 107, (5R)-5-[3-[(3 S)-4-(4-chloro-3-methoxy-phenyl)-3-ethyl-piperazin-1-yl]-3-oxo-propyl]-5-methyl-imidazolidine-2,4-dione] | 
17 | > 100 | > 100 | > 100 | > 100 | 0.001 to 25 | > 100 | COc1cc(N2CCN(C(=O)CC[C@H]3NC(=O)NC3=O)CC2)cc(Cl)c1F [Cpd 147, (5R)-5-[3-[4-(3-chloro-4-fluoro-5-methoxy-phenyl)piperazin-1-yl]-3-oxo-propyl]imidazolidine-2,4-dione] | 
18 | > 100 | > 100 | 0.001 to 25 | > 100 | 0.001 to 25 | > 100 | COc1cc(N2CCN(C(=O)CC[C@@]3(C)NC(=O)NC3=O)C[C@@H]2C)cc(F)c1Cl [Cpd 119, (5R)-5-[3-[(3 S)-4-(4-chloro-3-fluoro-5-methoxy-phenyl)-3-methyl-piperazin-1-yl]-3-oxo-propyl]-5-methyl-imidazolidine-2,4-dione] | 
19 | > 100 | > 100 | > 100 | > 100 | > 100 | > 100 | COc1cc(N2CCN(C(=O)CC[C@@]3(C)NC(=O)NC3=O)C[C@@H]2C(C)C)ccc1Cl [Cpd 109, (5R)-5-[3-[(3S)-4-(4-chloro-3-methoxy-phenyl)-3-isopropyl-piperazin-1-yl]-3-oxo-propyl]-5-methyl-imidazolidine-2,4-dione] | 
20 | > 100 | > 100 | > 100 | > 100 | 0.001 to 25 | > 100 | CCOc1cc(N2CCN(C(=O)CC[C@H]3NC(=O)NC3=O)C[C@@H]2C)cc(OC)c1Cl [Cpd 150, (5R)-5-[3-[(3 S)-4-(4-chloro-3-ethoxy-5-methoxy-phenyl)-3-methyl-piperazin-1-yl]-3-oxo-propyl]imidazolidine-2,4-dione] | 
